For one molecule, bioavailability results are on record in patent US20120295982A1, “TREATING HUMAN MALE COPD PATIENTS WITH ORAL BEDORADRINE” (MediciNova, Inc., priority 2011, published 2012).

Structures can show the parent of a compound that is named as a salt.

The nature of the data set: Oral bioavailability in dogs. To be noted: dog, in vivo, read-out: Oral F %.

As for `CN(C)C(=O)COc1ccc2c(c1)C[C@@H](NC[C@H](O)c1ccc(O)c(CCO)c1)CC2` [MN-221, bedoradrine sulfate], the bioavailability turned out to be 39%.
